Source: US20250122191A1, “COMPOUNDS AS BCL-2 INHIBITORS” (Fochon Biosciences, Ltd, priority 2021, published 2025)

What was measured:
Toledo cells = assay: Cell proliferation assay (MTS), Toledo cells; assay type: cell-based; conditions: Homo sapiens, 72 h
How it was run: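 Toledo cells (RPMI-1640, 10% FBS) seeded at 30000 cells/well, rested 4 h, then exposed 72 h at 37 °C, 5% CO2 to compound at nine final concentrations, 1.5–10000 nM. Viability by MTS (2 h), absorbance at 490 nm. IC50 from the concentration-response.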

[1] = Pharmacokinetics assay in rats; assay type: in vivo; conditions: male Sprague-Dawley rats, po, 5 mg/kg, plasma; for AUC(0-t) / half-life / Cmax: rat; for Cmax: read-out: Cmax/C0
Procedure: The purpose of this study was to determine the pharmacokinetics of Examples in male Sprague-Dawley rats (Supplied by Beijing Vital River Laboratory Animal Technology Co., Ltd.) following a single intravenous bolus injection at 1 mg/kg and oral gavage (PO) administration at 5 mg/kg.
Animals in Group 1 were administered with Examples by single intravenous bolus injection at 1 mg/kg, which was formulated in 10% DMSO (Sigma, Batch #LPCOS181): 60% PEG400 (Sigma, Batch #MKCH6281): 30% water, pH 5-6 at 1 mg/mL as a solution. Animals in Group 2 were administered with Examples by single oral gavage (PO) administration at 5 mg/kg, which was formulated in 10% DMSO (Sigma, Batch #BCCD6641): 60% PEG400 (Sigma, Batch #MKCL4921): 30% water at 1 mg/mL as a solution. Blood samples were collected at 0.083, 0.25, 0.5, 1, 2, 4, 8, 12 and 24 hours post-dose. Concentrations of Examples in plasma were determined by LC/MS/MS (LC: Waters UPLC; MS: Triple Quad 6500 plus).

RS4;11-BCL-2 D103E cells = assay: Cell proliferation assay (MTS), RS4;11-BCL-2 D103E engineered cells; assay type: cell-based; conditions: Homo sapiens, 72 h, read-out: RS4, 11 BCL2-D103E IC50
How it was run: (§1)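 RS4;11 cells stably overexpressing mutant BCL-2 were seeded and pre-incubated 4 h (G101V, F104L) or 24 h (D103E, D103Y), then exposed to compound at 1.5–10000 nM for 120 h (G101V, F104L) or 72 h (D103E, D103Y) at 37 °C. Viability was read by MTS absorbance at 490 nm after 2 h; IC50 fitted.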

RS4;11-BCL-2 G101V cells = assay: Cell proliferation assay (MTS), RS4;11-BCL-2 G101V engineered cells; assay type: cell-based; conditions: Homo sapiens, 120 h, read-out: RS4, 11 BCL2-G101V IC50
How it was run: as §1

RS4;11-BCL-2 F104L cells = assay: Cell proliferation assay (MTS), RS4;11-BCL-2 F104L engineered cells; assay type: cell-based; conditions: Homo sapiens, 120 h, read-out: RS4, 11 BCL2-F104L IC50
How it was run: as §1

SMILES	IC50 (RS4;11-BCL-2 D103E cells) [nM]	IC50 (RS4;11-BCL-2 G101V cells) [nM]	IC50 (RS4;11-BCL-2 F104L cells) [nM]	AUClast [1] [ng·h/mL]	Cmax/C0 [1] [ng/mL]	T1/2 [1] [h]	IC50 (Toledo cells) [nM]	AUC(0-t) [1] [ng·h/mL]	half-life [1] [h]	Cmax [1] [ng/mL]
CCOc1nc2[nH]cc(F)c2cc1Oc1cc(N2CCC3(CC2)CC(N2CCN(Cc4ccc(OC)cc4)C[C@H]2c2ccccc2C(C)C)C3)ccc1C(=O)NS(=O)(=O)c1cnc(NC[C@H]2CC[C@](C)(O)CC2)c([N+](=O)[O-])c1 [Example 2, 2-((6-ethoxy-3-fluoro-1H-pyrrolo[2,3-b]pyridin-5-yl)oxy)-N-((6-((((1r,4r)-4-hydroxy-4-methylcyclohexyl)methyl)amino)-5-nitropyridin-3-yl)sulfonyl)-4-(2-((R)-2-(2-isopropylphenyl)-4-(4-methoxybenzyl)piperazin-1-yl)-7-azaspiro[3.5]nonan-7-yl)benzamide]	3	1	–	–	–	–	1	1920	7.62	166
COc1nc2[nH]cc(F)c2cc1Oc1cc(N2CCC3(CC2)CC(N2CCN(Cc4ccc(F)c(F)c4)C[C@H]2c2ccccc2C(C)C)C3)ccc1C(=O)NS(=O)(=O)c1cnc(NC[C@H]2CC[C@](C)(O)CC2)c([N+](=O)[O-])c1 [Example 3, 4-(2-((R)-4-(3,4-difluorobenzyl)-2-(2-isopropylphenyl)piperazin-1-yl)-7-azaspiro[3.5]nonan-7-yl)-2-((3-fluoro-6-methoxy-1H-pyrrolo[2,3-b]pyridin-5-yl)oxy)-N-((6-((((1r,4r)-4-hydroxy-4-methylcyclohexyl)methyl)amino)-5-nitropyridin-3-yl)sulfonyl)benzamide]	–	1	1	–	–	–	1	4650	9.21	382
CCOc1nc2[nH]cc(F)c2cc1Oc1cc(N2CCC3(CC2)CC(N2CCN(Cc4ccc(F)c(F)c4)C[C@H]2c2ccccc2C(C)C)C3)ccc1C(=O)NS(=O)(=O)c1cnc(NC[C@H]2CC[C@](C)(O)CC2)c([N+](=O)[O-])c1 [Example 4, 4-(2-((R)-4-(3,4-difluorobenzyl)-2-(2-isopropylphenyl)piperazin-1-yl)-7-azaspiro[3.5]nonan-7-yl)-2-((6-ethoxy-3-fluoro-1H-pyrrolo[2,3-b]pyridin-5-yl)oxy)-N-((6-((((1r,4r)-4-hydroxy-4-methylcyclohexyl)methyl)amino)-5-nitropyridin-3-yl)sulfonyl)benzamide]	–	1	1	–	–	–	1	1740	9.57	176
COc1cc(CN2CCN(C3CC4(CCN(c5ccc(C(=O)NS(=O)(=O)c6cnc(NC[C@H]7CC[C@](C)(O)CC7)c([N+](=O)[O-])c6)c(Oc6cc7c(F)c[nH]c7nc6OC)c5)CC4)C3)[C@H](c3ccccc3C(C)C)C2)ccc1C1CC1 [Example 5, 4-(2-((R)-4-(4-cyclopropyl-3-methoxybenzyl)-2-(2-isopropylphenyl)piperazin-1-yl)-7-azaspiro[3.5]nonan-7-yl)-2-((3-fluoro-6-methoxy-1H-pyrrolo[2,3-b]pyridin-5-yl)oxy)-N-((6-((((1r,4r)-4-hydroxy-4-methylcyclohexyl)methyl)amino)-5-nitropyridin-3-yl)sulfonyl)benzamide]	–	1	1	–	–	–	1	2260	24.4	37.1
CC(C)c1ccccc1[C@@H]1CN(Cc2ccc(C#N)cc2)CCN1C1CC2(CCN(c3ccc(C(=O)NS(=O)(=O)c4cnc(NC[C@H]5CC[C@](C)(O)CC5)c([N+](=O)[O-])c4)c(Oc4cnc5[nH]cc(F)c5c4)c3)CC2)C1 [Example 237, 4-(2-((R)-4-(4-cyanobenzyl)-2-(2-isopropylphenyl)piperazin-1-yl)-7-azaspiro[3.5]nonan-7-yl)-2-((3-fluoro-1H-pyrrolo[2,3-b]pyridin-5-yl)oxy)-N-((6-((((1r,4r)-4-hydroxy-4-methylcyclohexyl)methyl)amino)-5-nitropyridin-3-yl)sulfonyl)benzamide]	1	1	1	–	–	–	1	–	–	–

Second part, led by results:

IC50 (RS4;11-BCL-2 D103E cells) [nM]	IC50 (RS4;11-BCL-2 G101V cells) [nM]	IC50 (RS4;11-BCL-2 F104L cells) [nM]	AUClast [1] [ng·h/mL]	Cmax/C0 [1] [ng/mL]	T1/2 [1] [h]	SMILES	IC50 (Toledo cells) [nM]	AUC(0-t) [1] [ng·h/mL]	half-life [1] [h]	Cmax [1] [ng/mL]
1	1	1	–	–	–	COc1ccc(CN2CCN(C3CC4(CCN(c5ccc(C(=O)NS(=O)(=O)c6cnc(NC[C@H]7CC[C@](C)(O)CC7)c([N+](=O)[O-])c6)c(Oc6cnc7[nH]cc(F)c7c6)c5)CC4)C3)[C@H](c3ccccc3C(C)C)C2)cc1 [Example 71, 2-((3-fluoro-1H-pyrrolo[2,3-b]pyridin-5-yl)oxy)-N-((6-((((1r,4r)-4-hydroxy-4-methylcyclohexyl)methyl)amino)-5-nitropyridin-3-yl)sulfonyl)-4-(2-((R)-2-(2-isopropylphenyl)-4-(4-methoxybenzyl)piperazin-1-yl)-7-azaspiro[3.5]nonan-7-yl)benzamide]	1	–	–	–
3	1	1	–	–	–	CC(C)c1ccccc1[C@@H]1CN(Cc2ccncc2)CCN1C1CC2(CCN(c3ccc(C(=O)NS(=O)(=O)c4cnc(NC[C@H]5CC[C@](C)(O)CC5)c([N+](=O)[O-])c4)c(Oc4cnc5[nH]cc(F)c5c4)c3)CC2)C1 [Example 240, 2-((3-fluoro-1H-pyrrolo[2,3-b]pyridin-5-yl)oxy)-N-((6-((((1r,4r)-4-hydroxy-4-methylcyclohexyl)methyl)amino)-5-nitropyridin-3-yl)sulfonyl)-4-(2-((R)-2-(2-isopropylphenyl)-4-(pyridin-4-ylmethyl)piperazin-1-yl)-7-azaspiro[3.5]nonan-7-yl)benzamide]	1	–	–	–
1	1	1	–	–	–	COc1nc2[nH]cc(F)c2cc1Oc1cc(N2CCC3(CC2)CC(N2CCN(Cc4ccc(OC)c5oc(C)nc45)C[C@H]2c2ccccc2C(C)C)C3)ccc1C(=O)NS(=O)(=O)c1cnc(NC[C@H]2CC[C@](C)(O)CC2)c([N+](=O)[O-])c1 [Example 245, 2-((3-fluoro-6-methoxy-1H-pyrrolo[2,3-b]pyridin-5-yl)oxy)-N-((6-((((1r,4r)-4-hydroxy-4-methylcyclohexyl)methyl)amino)-5-nitropyridin-3-yl)sulfonyl)-4-(2-((R)-2-(2-isopropylphenyl)-4-((7-methoxy-2-methylbenzo[d]oxazol-4-yl)methyl)piperazin-1-yl)-7-azaspiro[3.5]nonan-7-yl)benzamide]	1	–	–	–
1	1	1	–	–	–	CC(C)c1ccccc1[C@@H]1CN(Cc2ccc3c(c2)CCO3)CCN1C1CC2(CCN(c3ccc(C(=O)NS(=O)(=O)c4cnc(NC[C@H]5CC[C@](C)(O)CC5)c([N+](=O)[O-])c4)c(Oc4cnc5[nH]cc(F)c5c4)c3)CC2)C1 [Example 324, 4-(2-((R)-4-((2,3-dihydrobenzofuran-5-yl)methyl)-2-(2-isopropylphenyl)piperazin-1-yl)-7-azaspiro[3.5]nonan-7-yl)-2-((3-fluoro-1H-pyrrolo[2,3-b]pyridin-5-yl)oxy)-N-((6-((((1r,4r)-4-hydroxy-4-methylcyclohexyl)methyl)amino)-5-nitropyridin-3-yl)sulfonyl)benzamide]	1	–	–	–
1	1	1	–	–	–	COc1nc2[nH]cc(F)c2cc1Oc1cc(N2CCC3(CC2)CC(N2CCN(C[C@@H]4COCCO4)C[C@H]2c2ccccc2C(C)C)C3)ccc1C(=O)NS(=O)(=O)c1cnc(NC[C@H]2CC[C@](C)(O)CC2)c([N+](=O)[O-])c1 [Example 334, 4-(2-((R)-4-(((R)-1,4-dioxan-2-yl)methyl)-2-(2-isopropylphenyl)piperazin-1-yl)-7-azaspiro[3.5]nonan-7-yl)-2-((3-fluoro-6-methoxy-1H-pyrrolo[2,3-b]pyridin-5-yl)oxy)-N-((6-((((1r,4r)-4-hydroxy-4-methylcyclohexyl)methyl)amino)-5-nitropyridin-3-yl)sulfonyl)benzamide]	1	–	–	–
–	–	–	128	49.9	1.16	CC(C)c1ccccc1[C@@H]1CN(C)CCN1C1CC2(CCN(c3ccc(C(=O)NS(=O)(=O)c4cnc(NCC5CCC(C)(O)CC5)c([N+](=O)[O-])c4)c(Oc4cnc5[nH]ccc5c4)c3)CC2)C1 (stereo partly drawn) [Reference Compound 1, (R)-2-((1H-pyrrolo[2,3-b]pyridin-5-yl)oxy)-N-((6-(((4-hydroxy-4-methylcyclohexyl)methyl)amino)-S-nitropyridin-3-yl)sulfonyl)-4-(2-(2-(2-isopropylphenyl)-4-methylpiperazin-1-yl)-7-azaspiro[3.5]nonan-7-yl)benzamide, reference compound]	–	–	–	–
